According to US6083940A, “Method and composition for effecting contraception in a mammalian male” (SRI International, priority 1998, dated 2000):
“Also recorded” adds a separate entry of the source.

Assays:
[1] = system: rat ventral prostate explant cultures (prostatein C3 mRNA); assay: Measurement of Prostatein C3 mRNA in rat ventral prostate explant culture
Excerpt: Testosterone was used as a control. […] Addition of androgens to the medium of rat prostate explant cultures maintains the mRNA for C3 subunit of prostatein, and measurement of either prostatein or its C3 subunit mRNA serves as a sensitive, androgen-responsive marker for the explant system.

[2] = biological target: T1, Rat Prostate Androgen Receptor (Rattus norvegicus, UniProt P15207); assay: Rat Prostate Androgen Receptor Competition Assay; type: binding; settings: for Relative Binding Affinity: 5α-DHT set at 100, conc. of 5αDHT at 50% binding inhibition/conc. competitor at 50% binding inhibition × 100; for Relative androgen receptor binding affinity: Table 3, repeats the values of Table 1; for affinity for the rat prostate androgen receptor compared with other known antiandrogens: in words
T1 construct: from tissue; host or cells: prostate cytosol (100,000×g supernatant) of gonadectomized male rats
T1 sequence (P15207 1-902): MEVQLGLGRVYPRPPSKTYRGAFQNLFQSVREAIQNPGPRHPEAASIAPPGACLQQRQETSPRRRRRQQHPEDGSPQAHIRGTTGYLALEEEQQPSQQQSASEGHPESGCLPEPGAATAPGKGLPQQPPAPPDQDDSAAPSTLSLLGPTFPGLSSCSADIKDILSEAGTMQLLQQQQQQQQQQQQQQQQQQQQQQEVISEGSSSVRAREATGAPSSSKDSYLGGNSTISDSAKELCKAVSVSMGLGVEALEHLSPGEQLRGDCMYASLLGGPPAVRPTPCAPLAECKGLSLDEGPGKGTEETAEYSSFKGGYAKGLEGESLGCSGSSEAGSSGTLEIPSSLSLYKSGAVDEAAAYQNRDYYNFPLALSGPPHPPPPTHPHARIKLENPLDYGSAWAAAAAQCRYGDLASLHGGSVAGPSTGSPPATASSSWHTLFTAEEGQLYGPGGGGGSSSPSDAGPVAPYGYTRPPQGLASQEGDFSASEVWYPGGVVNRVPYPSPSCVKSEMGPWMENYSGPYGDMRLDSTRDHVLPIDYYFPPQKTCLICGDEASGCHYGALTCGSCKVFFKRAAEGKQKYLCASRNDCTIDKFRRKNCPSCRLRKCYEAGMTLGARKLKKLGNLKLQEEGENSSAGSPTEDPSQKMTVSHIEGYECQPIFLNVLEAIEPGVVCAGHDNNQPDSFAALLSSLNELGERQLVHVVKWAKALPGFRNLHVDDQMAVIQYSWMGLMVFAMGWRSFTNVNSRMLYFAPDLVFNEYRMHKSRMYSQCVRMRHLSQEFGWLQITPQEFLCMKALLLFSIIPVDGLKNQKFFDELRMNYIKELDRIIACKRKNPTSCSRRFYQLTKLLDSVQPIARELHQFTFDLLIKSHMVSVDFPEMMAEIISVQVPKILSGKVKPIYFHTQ
Procedure: Male rats were gonadectomized 20-22 hours before killing. The animals were killed by decapitation and exsanguination. Prostates were kept on ice immediately after removal from the animals. After trimming off the fats, prostates were minced and homogenized in 3 volumes of Tris-HCl buffer (0.02 M, pH 7.4 containing 1.5 mM EDTA and 10% glycerol). The homogenate was centrifuged at 10,000×g for 10 minutes, and the resulting supernatant was centrifuged again at 100,000×g for 60 minutes. The final supernatant contained the androgen-binding receptor.
The mixture was brought up to 1.0 mL with Tris-HCl buffer used for homogenizing the tissue. The mixture was then incubated at 4° C. for 4 hr., with occasional shaking. At the end of incubation, the receptor-bound androgen was isolated by ammonium sulfate precipitation.
A 70% saturated ammonium sulfate solution was prepared and its pH is adjusted to 7.4 with aqueous NH3. To 1.0 mL of the labeled cytosol, 1.0 mL of the 70% saturated ammonium sulfate was added dropwise with gentle mixing. The sample was let stand at 0-4° C. for 35 minutes, then centrifuged at 10,000×g for 20 minutes. The precipitate was resuspended in 1.0 mL of the above-mentioned Tris-HCl buffer containing 2 mg of bovine albumin. The androgen-receptor complex was immediately reprecipitated by addition of equal volumes of 70% saturated ammonium sulfate. The sample was allowed to stand at 0-4° C. for another 45 minutes, then centrifuged again as outlined above. The supernatant was decanted and the walls of the tubes thoroughly dried with filter paper. The final precipitated protein was resuspended in 1.0 mL of the same buffer and then transferred quantitatively into a counting vial containing 10 mL of Scintisol for counting.

[3] = system: SEX ACCESSORY GLANDS AND TESTES OF 22-DAY OLD CASTRATED MALE RATS; assay: Inhibition of Prostate Growth in Castrated Male Rats (testosterone supplemented); type: in vivo, rat; settings: for In Vivo Percent Inhibition of Ventral Prostate Weight: castrated male rats given supplemental testosterone; for Final BW / Seminal Vesicle weight / Ventral Prostate weight: ten days, mean ± SE; for inhibition of prostate growth stimulated by exogenous testosterone: male castrated rats, in words
Procedure: Male rats weighing 36 to 38 grams were castrated at the age of 22 days. […] The castrated rats were treated with the steroids once daily for ten consecutive days. On the tenth day following treatment, the rats were sacrificed and autopsied and final seminal vesicle weights and ventral prostate weights determined.

[4] = system: 22 day old castrated male rats, seminal vesicle and ventral prostate; assay: standard Hershberger androgenic assay (agonist androgenic activity); type: in vivo, rat; settings: for dose response curves for androgenic activity: 22 day old castrated male rats; for agonist androgenic activity at the therapeutically effective antiandrogenic dose: by extrapolation to 30.0 mg, castrated male rat; for seminal vesicle weight (agonist androgenic activity) / ventral prostate weight (agonist androgenic activity): doses of 0.8 mg, 1.6 mg, and 3.2 mg, versus vehicle alone; for effect of drug dosage on prostate weight (FIG. 1): increasing dose, in words
[5] = system: SEX ACCESSORY GLANDS AND TESTES OF INTACT SPRAGUE-DAWLEY MALE RATS; assay: Effect of Different Doses of Antiandrogen Compound III-1 on Sex Accessory Glands and Testes of Intact Sprague-Dawley Male Rats; type: in vivo, Sprague-Dawley rat; settings: for Body Weight / Epididymus weight / Seminal Vesicle weight / Ventral Prostate weight / Testes weight: N=4, mean ± SE; for Seminal Vesicle weight: P < .005; for Ventral Prostate weight: P < .01
Excerpt: The foregoing procedures were used to evaluate the effect of antiandrogen compound III-1 on the sex accessory glands and tests of intact Sprague-Dawley male rats. As may be seen in the Table, […], indicating antagonism on the effect of the testosterone produced.
^a Administered subcutaneously once daily for 12 days

[6] = dihydrotestosterone 25 nM alone, N=3
[7] = compound 30.0 mg/day + testosterone propionate 0.6 mg/day
[8] = 10 mg/day subcutaneously once daily for 12 days, statistically lower than control
[9] = 30 mg/day subcutaneously once daily for 12 days, statistically lower than control, P < .001
[10] = 30 mg/day subcutaneously once daily for 12 days, statistically lower than control
[11] = III-1 2500 nM with dihydrotestosterone 25 nM, N=2
[12] = testosterone propionate 0.6 mg/day alone, N=5

In the case of `C[C@]12CCC(=O)C[C@@H]1CC[C@@H]1[C@@H]2CC[C@]2(C)[C@@H](O)CC[C@@H]12` [5α-Dihydrotestosterone, reference compound], the “C3/28s × 100, percent of dihydrotestosterone” value [1, 6] is reported as 100%, the “C3 m-RNA, percent of dihydrotestosterone” value [1, 6] is reported as 100% and the “C3 m-RNA” value ([1]; dihydrotestosterone 25 nM alone, N=3, 30 disks/explant, printed spread ± 32,675) is reported as 219,371. For the same compound, the “C3/28s × 100” value ([1]; dihydrotestosterone 25 nM alone, N=3, printed spread ± 26.9) was 148.9.

In the case of `CCC[C@]1(O)CC[C@H]2[C@@H]3CCC4=CC(=O)CCC4=C3CC[C@@]21C` [Compound II-1, 17α-Propylestra-4,9-dien-17β-ol-3-one], the “Relative Binding Affinity” value [2] is reported as 5.7, the “Relative androgen receptor binding affinity” value [2] is reported as 5.7 and the “affinity for the rat prostate androgen receptor compared with other known antiandrogens” value [2] is reported as “higher affinity for the androgen rat prostate receptor than all of the other known antiandrogens except cyproterone acetate; also recorded: higher affinity for the rat ventral prostate androgen receptor than the steroidal antiandrogen zanoterone (WIN®49,596); also recorded: higher affinity to the androgen receptor than three other nonsteroidal antiandrogen receptor antagonists flutamide, which is available as an antiandrogen in the United States, nilutamide, developed by Roussel in France, and Casodex® (ICI 176,334)”. For the same compound, the “In Vivo Percent Inhibition of Ventral Prostate Weight” value (“In Vivo Percent Inhibition” for short) [3] was 18.8 ± 5.74%, the “Final BW” value [3, 7] was 88 ± 5 g and the “Seminal Vesicle weight” value [3, 7] was 28.2 ± 2.8 mg. For the same compound, the “Ventral Prostate weight” value [3, 7] was 45.3 ± 2.5 mg, the “inhibition of prostate growth stimulated by exogenous testosterone” value [3] was “inhibit prostate growth stimulated by exogenous testosterone” and the “dose response curves for androgenic activity” value [4] was “Very flat dose response curves”. The “agonist androgenic activity at the therapeutically effective antiandrogenic dose” value [4] was “essentially devoid of agonist androgenic activity”, the “seminal vesicle weight (agonist androgenic activity)” value [4] was “equal to the vehicle alone controls” and the “ventral prostate weight (agonist androgenic activity)” value [4] was “equal to the vehicle alone controls”. For the same compound, the “effect of drug dosage on prostate weight (FIG. 1)” value (“effect of drug dosage” for short) [4] was “fairly steady prostate weight, even at higher doses”.

For `C[C@]12Cc3nonc3C[C@@H]1CC[C@@H]1[C@@H]2CC[C@@]2(C)[C@H]1CC[C@@]21CCCO1` [Compound III-1, 2',3'α-Tetrahydrofuran-2'-spiro-17-(5α-androstan(2,3-c]furazan], the “Relative Binding Affinity” value [2] was 5.8, the “Relative androgen receptor binding affinity” value [2] was 5.8 and the “affinity for the rat prostate androgen receptor compared with other known antiandrogens” value [2] was “higher affinity for the androgen rat prostate receptor than all of the other known antiandrogens except cyproterone acetate; also recorded: higher affinity for the rat ventral prostate androgen receptor than the steroidal antiandrogen zanoterone (WIN®49,596); also recorded: higher affinity to the androgen receptor than three other nonsteroidal antiandrogen receptor antagonists flutamide, which is available as an antiandrogen in the United States, nilutamide, developed by Roussel in France, and Casodex® (ICI 176,334)”. The “In Vivo Percent Inhibition” value [3] was 32.2 ± 9.49%, the “Final BW” value [3, 7] was 89 ± 5 g and the “Seminal Vesicle weight” value [3, 7] was 22.5 ± 1.1 mg. For the same compound, the “Ventral Prostate weight” value [3, 7] was 39.5 ± 4.1 mg, the “inhibition of prostate growth stimulated by exogenous testosterone” value [3] was “inhibit prostate growth stimulated by exogenous testosterone” and the “Body Weight” value ([5]; 10 mg/day subcutaneously once daily for 12 days, not statistically different from control) was 295 ± 5 g. For the same compound, the Epididymus weight ([5]; 10 mg/day subcutaneously once daily for 12 days, statistically lower than control, P < .001) was 524 ± 48 mg, the “Seminal Vesicle weight” value [5, 8] was 225 ± 40 mg and the “Ventral Prostate weight” value [5, 8] was 170 ± 13 mg. For the same compound, the Testes weight ([5]; 10 mg/day subcutaneously once daily for 12 days, statistically lower than control, P < .02) was 2.552 ± 111 g, the Epididymus weight [5, 9] was 458 ± 39 mg and the Testes weight [5, 9] was 1.942 ± .062 g. The “Seminal Vesicle weight” value [5, 10] was 242 ± 61 mg, the “Ventral Prostate weight” value [5, 10] was 148 ± 28 mg and the “Body Weight” value ([5]; 30 mg/day subcutaneously once daily for 12 days, statistically lower than control, P < .05) was 277 ± 9 g. The “magnitude of prostatic growth inhibition, dose dependence” value ([5]; Table 4, tentative conclusion) was “appears to be dose dependent”, the “dose response curves for androgenic activity” value [4] was “Very flat dose response curves” and the “agonist androgenic activity at the therapeutically effective antiandrogenic dose” value [4] was “essentially devoid of agonist androgenic activity”. For the same compound, the “seminal vesicle weight (agonist androgenic activity)” value [4] was “equal to the vehicle alone controls”, the “ventral prostate weight (agonist androgenic activity)” value [4] was “equal to the vehicle alone controls” and the “effect of drug dosage” value [4] was “fairly steady prostate weight, even at higher doses”. The “C3/28s × 100, percent of dihydrotestosterone” value [1, 11] was 62%, the “C3 m-RNA, percent of dihydrotestosterone” value [1, 11] was 43% and the “C3 m-RNA” value ([1]; III-1 2500 nM with dihydrotestosterone 25 nM, N=2, 30 disks/explant, printed spread ± 1,603) was 95,130. The “C3/28s × 100” value ([1]; III-1 2500 nM with dihydrotestosterone 25 nM, N=2, printed spread ± 0.8) was 91.8 and the anti-androgenic activity ([1]; III-1/dihydrotestosterone formulation, in words) was “marked anti-androgenic activity”.

With `CC(=O)O[C@]1(C(C)=O)CC[C@H]2[C@@H]3C=C(Cl)C4=CC(=O)[C@@H]5C[C@@H]5[C@]4(C)[C@H]3CC[C@@]21C` [Cyproterone acetate, reference compound] the “In Vivo Percent Inhibition” value [3] was 54.3 ± 8.34%, the “Seminal Vesicle weight” value [3, 7] was 9.8 ± 0.8 mg and the “Ventral Prostate weight” value [3, 7] was 30.0 ± 3.6 mg.

`CC(C)(O)C(=O)Nc1ccc([N+](=O)[O-])c(C(F)(F)F)c1` [Hydroxyflutamide, reference compound] was tested, and the “Relative Binding Affinity” value [2] was 2.6 and the “Relative androgen receptor binding affinity” value [2] was 2.6.

In the case of `CCC(=O)O[C@H]1CC[C@H]2[C@@H]3CCC4=CC(=O)CC[C@]4(C)[C@H]3CC[C@]12C` [Testosterone propionate, reference compound], the “Final BW” value [3, 12] is reported as 86 ± 4 g, the “Seminal Vesicle weight” value [3, 12] is reported as 26.6 ± 34 mg and the “Ventral Prostate weight” value [3, 12] is reported as 53.4 ± 5.8 mg.

In the case of `C#C[C@]1(O)CC[C@H]2[C@@H]3CC[C@H]4Cc5nn(S(C)(=O)=O)cc5C[C@]4(C)[C@H]3CC[C@@]21C` [Win 49,596, zanoterone, reference compound], the “Relative Binding Affinity” value [2] is reported as 2.2 and the “Relative androgen receptor binding affinity” value [2] is reported as 2.2.

With `C[C@]12CC[C@H]3[C@@H](CCC4=CC(=O)CC[C@@]43C)[C@@H]1CC[C@@H]2O` [testosterone, reference compound] the “effect of drug dosage” value [4] was “proportionate rise in prostate weight with increasing dose”.
